Results from ChEMBL document CHEMBL1155961, “Novel 4-aryl-pyrido[1,2-c]pyrimidines with dual SSRI and 5-HT1A activity: part 2” (Eur J Med Chem, 2009).
Activity calls are given as the source filed them. No cut-off for these calls is given here.

What was measured:
[1] = target: Sodium-dependent serotonin transporter (Rattus norvegicus, UniProt P31652); test: Displacement of [3H]citalopram from SERT in rat cerebral cortex by liquid scintillation counting; assay type: tissue-based
[2] = target: T1, 5-hydroxytryptamine receptor 1A (Rattus norvegicus, UniProt P19327); test: Displacement of [3H]8-OH-DPAT from 5-HT1A receptor in rat hippocampus; assay type: tissue-based
T1 sequence (P19327 whole entry): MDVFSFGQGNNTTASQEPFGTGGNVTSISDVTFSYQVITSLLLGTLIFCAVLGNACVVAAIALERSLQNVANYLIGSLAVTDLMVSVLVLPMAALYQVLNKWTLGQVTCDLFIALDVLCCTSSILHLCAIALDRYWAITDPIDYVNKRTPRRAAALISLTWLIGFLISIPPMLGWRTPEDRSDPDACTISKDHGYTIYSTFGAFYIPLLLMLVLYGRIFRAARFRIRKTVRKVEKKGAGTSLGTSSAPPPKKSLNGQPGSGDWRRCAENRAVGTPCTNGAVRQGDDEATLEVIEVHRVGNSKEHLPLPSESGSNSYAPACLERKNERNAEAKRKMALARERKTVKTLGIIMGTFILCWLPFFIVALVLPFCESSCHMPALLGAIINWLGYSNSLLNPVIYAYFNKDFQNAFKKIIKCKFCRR

Mus musculus [3] = organism: Mus musculus; details: Swiss albino, 5 mg/kg
Description: Effect on hypothermia in Swiss albino mouse assessed as change in rectal body temperature at 5 mg/kg, ip dosed 15 mins after 0.1 mg/kg, sc WAY 100635 challenge measured after 30 mins by inducible hypothermia test

Mus musculus [4] = organism: Mus musculus; details: Swiss albino, 1.25 mg/kg
Description: Effect on hypothermia in Swiss albino mouse assessed as change in rectal body temperature at 1.25 mg/kg, ip after 90 mins by inducible hypothermia test

Mus musculus [5] = organism: Mus musculus; details: Swiss albino, 1.25 mg/kg; remark: listed apart in the source
Description: Effect on hypothermia in Swiss albino mouse assessed as change in rectal body temperature at 1.25 mg/kg, ip after 30 mins by inducible hypothermia test

Mus musculus [6] = organism: Mus musculus; details: Swiss albino, 2.5 mg/kg
Description: Effect on hypothermia in Swiss albino mouse assessed as change in rectal body temperature at 2.5 mg/kg, ip after 90 mins by inducible hypothermia test

Mus musculus [7] = test: Effect on hypothermia in Swiss albino mouse assessed as change in rectal body temperature at 5 mg/kg, ip after 90 mins by inducible hypothermia test; assay type: functional, organism-based; set-up: dose 5 mg/kg
Mus musculus [8] = organism: Mus musculus; details: Swiss albino, 2.5 mg/kg; remark: listed apart in the source
Description: Effect on hypothermia in Swiss albino mouse assessed as change in rectal body temperature at 2.5 mg/kg, ip after 30 mins by inducible hypothermia test

Mus musculus [9] = test: Effect on hypothermia in Swiss albino mouse assessed as change in rectal body temperature at 5 mg/kg, ip after 60 mins by inducible hypothermia test; assay type: functional, organism-based; set-up: dose 5 mg/kg
Mus musculus [10] = organism: Mus musculus; details: Swiss albino, 5 mg/kg; remark: listed apart in the source
Description: Effect on hypothermia in Swiss albino mouse assessed as change in rectal body temperature at 5 mg/kg, ip dosed 15 mins after 0.1 mg/kg, sc WAY 100635 challenge measured after 60 mins by inducible hypothermia test

Mus musculus [11] = test: Effect on hypothermia in Swiss albino mouse assessed as change in rectal body temperature at 5 mg/kg, ip after 120 mins by inducible hypothermia test; assay type: functional, organism-based; set-up: dose 5 mg/kg
Mus musculus [12] = organism: Mus musculus; details: Swiss albino, 1.25 mg/kg; remark: listed apart in the source
Description: Effect on hypothermia in Swiss albino mouse assessed as change in rectal body temperature at 1.25 mg/kg, ip after 120 mins by inducible hypothermia test

Mus musculus [13] = organism: Mus musculus; details: Swiss albino, 2.5 mg/kg; remark: listed apart in the source
Description: Effect on hypothermia in Swiss albino mouse assessed as change in rectal body temperature at 2.5 mg/kg, ip after 120 mins by inducible hypothermia test

Mus musculus [14] = test: Effect on hypothermia in Swiss albino mouse assessed as change in rectal body temperature at 5 mg/kg, ip after 30 mins by inducible hypothermia test; assay type: functional, organism-based; set-up: dose 5 mg/kg
Mus musculus [15] = organism: Mus musculus; details: Swiss albino, 2.5 mg/kg; remark: listed apart in the source
Description: Effect on hypothermia in Swiss albino mouse assessed as change in rectal body temperature at 2.5 mg/kg, ip after 60 mins by inducible hypothermia test

Mus musculus [16] = organism: Mus musculus; details: Swiss albino, 1.25 mg/kg; remark: listed apart in the source
Description: Effect on hypothermia in Swiss albino mouse assessed as change in rectal body temperature at 1.25 mg/kg, ip after 60 mins by inducible hypothermia test

Mus musculus [17] = test: Effect on hypothermia in Swiss albino mouse assessed as change in rectal body temperature at 10 mg/kg, ip after 90 mins by inducible hypothermia test; assay type: functional, organism-based; set-up: dose 10 mg/kg
Mus musculus [18] = test: Effect on hypothermia in Swiss albino mouse assessed as change in rectal body temperature at 20 mg/kg, ip after 60 mins by inducible hypothermia test; assay type: functional, organism-based; set-up: dose 20 mg/kg
Mus musculus [19] = test: Effect on hypothermia in Swiss albino mouse assessed as change in rectal body temperature at 10 mg/kg, ip after 60 mins by inducible hypothermia test; assay type: functional, organism-based; set-up: dose 10 mg/kg
Mus musculus [20] = test: Effect on hypothermia in Swiss albino mouse assessed as change in rectal body temperature at 20 mg/kg, ip after 90 mins by inducible hypothermia test; assay type: functional, organism-based; set-up: dose 20 mg/kg
Mus musculus [21] = test: Effect on spontaneous locomotor activity in Swiss albino mouse assessed as number of light-beam crossings in actiometers pretreated for 30 mins at 20 mg/kg, ip measured during 6 mins post drug dose; assay type: functional; details: route intraperitoneal
Mus musculus [22] = test: Effect on hypothermia in Swiss albino mouse assessed as change in rectal body temperature at 10 mg/kg, ip after 30 mins by inducible hypothermia test; assay type: functional, organism-based; set-up: dose 10 mg/kg
Mus musculus [23] = test: Antidepressant activity in Swiss albino mouse assessed as reduction of immobility time at 10 mg/kg, ip administered 30 mins before test measured 6 mins test session after 2 mins habituation period by forced swimming test; assay type: functional
Mus musculus [24] = test: Effect on hypothermia in Swiss albino mouse assessed as change in rectal body temperature at 10 mg/kg, ip after 120 mins by inducible hypothermia test; assay type: functional, organism-based; set-up: dose 10 mg/kg
Mus musculus [25] = test: Effect on hypothermia in Swiss albino mouse assessed as change in rectal body temperature at 20 mg/kg, ip dosed 15 mins after 0.1 mg/kg, sc WAY 100635 challenge measured after 60 mins by inducible hypothermia test; assay type: functional, organism-based
Mus musculus [26] = test: Effect on hypothermia in Swiss albino mouse assessed as change in rectal body temperature at 20 mg/kg, ip dosed 15 mins after 0.1 mg/kg, sc WAY 100635 challenge measured after 30 mins by inducible hypothermia test; assay type: functional, organism-based
Mus musculus [27] = test: Effect on hypothermia in Swiss albino mouse assessed as change in rectal body temperature at 20 mg/kg, ip after 30 mins by inducible hypothermia test; assay type: functional, organism-based; set-up: dose 20 mg/kg
Mus musculus [28] = test: Effect on hypothermia in Swiss albino mouse assessed as change in rectal body temperature at 20 mg/kg, ip after 120 mins by inducible hypothermia test; assay type: functional, organism-based; set-up: dose 20 mg/kg
Mus musculus [29] = test: Effect on spontaneous locomotor activity in Swiss albino mouse assessed as number of light-beam crossings in actiometers pretreated for 30 mins at 20 mg/kg, ip measured during 30 mins post drug dose; assay type: functional; details: route intraperitoneal
Mus musculus [30] = test: Antidepressant activity in Swiss albino mouse assessed as reduction of immobility time at 20 mg/kg, ip administered 30 mins before test measured 6 mins test session after 2 mins habituation period by forced swimming test; assay type: functional; set-up: scale not given: the % may be the effect or the level left; details: route intraperitoneal

Sodium-dependent serotonin transporter, sequence (P31652 whole entry): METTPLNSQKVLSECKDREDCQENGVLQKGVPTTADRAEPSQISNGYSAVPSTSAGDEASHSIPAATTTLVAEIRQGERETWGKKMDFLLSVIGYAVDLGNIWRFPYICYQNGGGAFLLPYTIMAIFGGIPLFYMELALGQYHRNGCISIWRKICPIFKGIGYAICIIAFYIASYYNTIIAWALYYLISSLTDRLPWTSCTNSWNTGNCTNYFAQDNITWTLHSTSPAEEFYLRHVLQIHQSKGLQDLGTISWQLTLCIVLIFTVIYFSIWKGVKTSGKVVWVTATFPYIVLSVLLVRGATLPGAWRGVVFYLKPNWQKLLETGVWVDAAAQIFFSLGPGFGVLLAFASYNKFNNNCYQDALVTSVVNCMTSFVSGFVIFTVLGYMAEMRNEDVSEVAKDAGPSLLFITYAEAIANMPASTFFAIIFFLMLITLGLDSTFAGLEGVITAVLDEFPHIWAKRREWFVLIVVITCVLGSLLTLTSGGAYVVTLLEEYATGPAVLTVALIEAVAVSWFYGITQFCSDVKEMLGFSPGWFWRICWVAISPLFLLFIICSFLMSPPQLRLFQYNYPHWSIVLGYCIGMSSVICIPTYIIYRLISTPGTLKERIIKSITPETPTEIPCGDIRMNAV

Compound: Cc1[nH]c2ccccc2c1C1CCN(CCCCn2c(=O)c(-c3ccc(F)cc3)c3n(c2=O)CCCC3)CC1
- Ki [1]: 116 nM
- Ki [2]: 3200 nM

Compound: Cc1[nH]c2ccccc2c1C1CCN(CCCCn2c(=O)c(-c3ccccc3F)c3n(c2=O)CCCC3)CC1
- Ki [1]: 944 nM
- Ki [2]: 2200 nM

Compound: Cc1[nH]c2ccccc2c1C1CCN(CCCCn2c(=O)c(-c3ccccc3)c3n(c2=O)CCCC3)CC1
- Ki [1]: 274 nM
- Ki [2]: 1400 nM

Compound: Cc1ccccc1-c1c2n(c(=O)n(CCCCN3CCC(c4c[nH]c5ccccc45)CC3)c1=O)CCCC2
- Ki [1]: 124 nM
- Ki [2]: 53.8 nM

Compound: COc1ccc2[nH]cc(C3CCN(CCCCn4c(=O)c(-c5ccccc5C)c5n(c4=O)CCCC5)CC3)c2c1
- Ki [1]: 124 nM
- Ki [2]: 51.7 nM

Compound: Cc1ccc(-c2c3n(c(=O)n(CCCCN4CCC(c5c(C)[nH]c6ccccc56)CC4)c2=O)CCCC3)cc1
- Ki [1]: 115 nM
- Ki [2]: 1500 nM

Compound: COc1ccc(-c2c3n(c(=O)n(CCCCN4CCC(c5c[nH]c6ccc(OC)cc56)CC4)c2=O)CCCC3)cc1
- deltaT (Mus musculus [3]): -1.2 °C
- deltaT (Mus musculus [4]): -0.4 °C
- deltaT (Mus musculus [5]): -0.3 °C
- deltaT (Mus musculus [6]): -0.6 °C
- deltaT (Mus musculus [7]): -0.3 °C
- deltaT (Mus musculus [8]): -0.8 °C
- deltaT (Mus musculus [9]): -0.5 °C
- Ki [1]: 83.5 nM
- deltaT (Mus musculus [10]): -0.9 °C
- deltaT (Mus musculus [11]): -0.1 °C
- deltaT (Mus musculus [12]): -0.2 °C
- Ki [2]: 10.4 nM
- deltaT (Mus musculus [13]): -0.5 °C
- deltaT (Mus musculus [14]): -1.1 °C
- deltaT (Mus musculus [15]): -0.6 °C
- deltaT (Mus musculus [16]): -0.4 °C

Compound: Cc1[nH]c2ccccc2c1C1CCN(CCCCn2c(=O)c(-c3ccc(Cl)cc3)c3n(c2=O)CCCC3)CC1
- Ki [1]: 460 nM
- Ki [2]: 1500 nM

Compound: COc1ccc2[nH]cc(C3CCN(CCCCn4c(=O)c(-c5ccccc5F)c5n(c4=O)CCCC5)CC3)c2c1
- deltaT (Mus musculus [17]): -0.6 °C
- deltaT (Mus musculus [18]): -1 °C
- deltaT (Mus musculus [19]): -0.8 °C
- deltaT (Mus musculus [20]): -0.8 °C
- Activity (Mus musculus [21]): 272
- deltaT (Mus musculus [7]): -0.4 °C
- deltaT (Mus musculus [9]): -0.6 °C
- deltaT (Mus musculus [22]): -0.7 °C
- Activity (Mus musculus [23]): inactive
- Ki [1]: 184 nM
- deltaT (Mus musculus [11]): -0.3 °C
- deltaT (Mus musculus [24]): -0.4 °C
- deltaT (Mus musculus [25]): -0.4 °C
- Ki [2]: 45.6 nM
- deltaT (Mus musculus [26]): -0.5 °C
- deltaT (Mus musculus [27]): -1.2 °C
- deltaT (Mus musculus [28]): -0.7 °C
- deltaT (Mus musculus [14]): -0.7 °C
- Activity (Mus musculus [29]): 520
- Activity (Mus musculus [30]): 26%

Compound: COc1ccc2[nH]cc(C3CCN(CCCCn4c(=O)c(-c5ccc(Cl)cc5)c5n(c4=O)CCCC5)CC3)c2c1
- Ki [1]: 222 nM
- Ki [2]: 14.6 nM
